Measurements published in patent EP2345639A1, “Cyclic hydroxylamine derivatives, their preparation and use as antioxidants” (ABIOGEN PHARMA S.p.A., priority 2009, dated 2011).

Assays:
[1] = TEAC method (Trolox Equivalent Antioxidant Capacity Assay); format: biochemical; conditions: ratio of gradient to gradient of Trolox; 650 nm, 37 °C, about 90 minutes
From the text: This assay is used to measure the total antioxidant activity of pure substances, biological fluids and plant compounds and is based on the reaction of antioxidants with the cation radical ABTS·^+ (2,2'-azinobis(3-ethylbenzothiazolin-6-sulphonate)). This cation radical is metastable and has to be generated just before the experiment by reacting ABTS with hydrogen peroxide in the presence of HRP. This radical can be reduced, with consequent loss of absorbance, by an antioxidant whose scavenging capacity can be measured spectrophotometrically at 650 nm. The test is carried out at 37 °C and the results are obtained from a comparison with Trolox (a synthetic antioxidant and hydrophilic analogue of vitamin E).
The ABTS solution S1 was prepared as follows: • 20 mg of ABTS were added to 50 mM of citric acid buffer (40 ml) at pH=4.5 and to the resulting solution there was added an aqueous solution of HRP (4.4 mg, 400 µl) and an aqueous solution of H2O2 (10 µl of a 30% solution diluted with 16.3 ml of water).
For each of the compounds (1)-(11), as synthesized above, there was prepared a 600 µM solution in water, methanol or DMSO according to its solubility, as well as a Trolox solution as reference.
Each solution was diluted to produce 6 solutions each at a concentration between 25 µM and 300 µM. From each of the diluted and divided solutions, there were withdrawn 20 µl to which 200 µl of solution S1 were then added.
The decrease in absorbance of each solution thus obtained was monitored at 650 nm until a stable value was reached (about 90 minutes).
For each set of 6 solutions and for the reference trolox solution, the absorption was given in graph form as a function of the amount of compound (nmol) in the solution. The gradient of the straight line obtained by linear interpolation was determined according to the least squares method. The TEAC value of each compound of the invention is given in the table below and is expressed as the ratio between the gradient of the resulting straight line and the gradient of the reference (trolox) straight line.

[2] = Acid dissociation constants (pKa) by titration; format: physicochemical; conditions: pH at semi-neutralization point of titration with 0.1 N NaOH or HCl
Experimental: The following equipment was used during the implementation of all the examples: • for melting point determination a Buchi B-540 instrument was used; • the pKa is the pH at the semi-neutralization point of titration using a Mettler Toledo DL-50 instrument with a 0.1 N NaOH or HC! solution; • the ^1H-NMR spectra were recorded at 300 MHz and the ^13C-NMR spectra were recorded at 75 MHz using a Varian Unity 300 instrument; • spectrophotometric measurements were carried out using a Lambda Perkin Elmer 15 UV/Vis spectrophotometer for the DPPH assay and a Wallac Victor 1420 multilabel counter spectrophotometer.

healthy animals = test: Effect of the compounds on healthy animals (same in vivo assay, cerebral oxidative parameters); set-up: species or system mice; conditions: healthy mice; for Average % variation with respect to the vehicle: 50 mg/kg IP for three consecutive days, mean over all parameters, D = doxorubicin alone; for CAT/pr / GPX/pr / GSH/pr / GST/pr / Prot. Hmg / Prot. Ox/pr / SOD/pr / Brain/BWi: 50 mg/kg IP x3 days, percentage change relative to the vehicle
Experimental: (§1) 10 mice were used for each treatment group. For each compound 50 mg/kg were administered intraperitoneally (IP) for three consecutive days (day 0, 1 and 2); half the animals (5) also received IP 16.7 mg/kg of doxorubicin immediately after the first treatment (day 0). On the day after the last administration (day 3) the animals were killed by neck dislocation and the brains were removed, weighed and frozen in liquid nitrogen.
(§2) For the analyses of oxidative stress, 100 mg/ml of brain homogenate was prepared in HEB^(*) buffer (pH 7.4 EDTA/HEPES^(**)) containing a mixture of enzyme inhibitors (Leupeptin, Pepstatin, Aprotinin, BHA).
(§3) The evaluation parameters were: • BrW/BWi: ratio between final brain weight and initial body weight (day 0); • Prot. Hmg: total proteins in the homogenate (BCA method, i.e. bicinchoninic acid); • Prot. Ox: oxidized proteins in the Hmg by means of a colorimetric method using dinitrophenylhydrazone (DNPH); • GSH: reduced glutathione in the supernatant (sn) of the Hmg, obtained after precipitation with metaphosphoric acid (MPA), by means of a colorimetric method using dithiodinitrobenzene (DTNB); • CAT: catalase in the Hmg by a colorimetric method using potassium dichromate; • SOD: superoxide dismutase by a colorimetric method using SOD Reagent (xanthine, EDTA, nitroblue tetrazole, Na2CO3, BSA, i.e. bovine serum albumin); • GST: glutathione S-transferase in the supernatant by a colorimetric method using chlorodinitrobenzene (CDNB) and GSH; and • GPx: glutathione peroxidase in the supernatant after addition of GSH and t-BuOOH, heating and precipitation with MPA; followed by GSH method with DTNB. The assay was performed on the compounds (1)-(5) and (7)-(11) and on edaravone (E), as comparative compound.
The mean % effect, on all the parameters simultaneously, of the triple treatment in healthy animal, as mean percentage change relative to the vehicle. This value is useful as an approximate safety index of the oxidative state of the brain, i.e. the capacity of the compounds of the invention not to alter cerebral homeostasis in healthy animals.

[3] = tested on: doxorubicin-induced cerebral oxidative stress in mice; test: In vivo assay of cerebral oxidative stress induced in mice by doxorubicin (model and oxidized animals); conditions: % incidence of D relative to V
Experimental: The assay was carried out on compounds (1)-(5) and (7)-(11) and on edaravone (E) as comparative compound.
as §1, §2, §3
The mean effect (n=5 experiments) of doxorubicin (D), i.e. "oxidized" animal, relative to the vehicle (V), the vehicle representing the healthy animal.
All the parameters, with the exclusion of Brain/BWi and Prot. Hmg, were normalized for total Hmg proteins. The D value standard deviations and the % incidence relative to V are given in italics.
The effect of the tested compounds on the "oxidized" animals was given as % inhibition relative to the percentage change due to doxorubicin alone. The effect of the compounds on the oxidized animals can be expressed both as a function of the values of the vehicle (healthy, vehicle only) and as a function of the value of its own (healthy, compound only): • Vehicle: percentage [(Compound+D)/V]x100/[(V+D)/V]x100 • Its own: percentage [(Compound+D)/Compound]x100/[(V+D)/V]x100
Again in this case, the mean % effect relative to doxorubicin alone could be given for all the parameters simultaneously, as an approximate index of effectiveness on the cerebral oxidative state of the animal.

[4] = Brain-to-plasma concentration ratio in mice; format: in vivo, Female CD-1 mice; conditions: female, CD-1, mouse, ip, 25 mg/kg intraperitoneal, area under the curve of brain and plasma concentrations 0 to 60 minutes, read-out: B/P ratio
Experimental: The ability of the compounds of the invention to penetrate the brain was investigated by measuring their brain/plasma (B/P) ratio in mice following intraperitoneal administration.
Female CD-1 mice were used (n=3 for each time period) and received the compounds of the invention by intraperitoneal administration, in 25 mg/kg doses in a 0.5% NaHCO3 buffer (pH 8.3). At predefined intervals following said administration, i.e. 5, 15, 30 and 60 minutes, the mice were killed and both plasma and total brain tissue were collected.
Specifically, after anaesthesia with ether, the animals were bled by blood withdrawal from the abdominal aorta then immediately decapitated. The blood samples were collected into plasma separator tubes containing Li-Heparin as anticoagulant and centrifuged. The resulting plasma was then stored at -20 °C. The brain was rapidly removed from the cranium and weighed, subsequently frozen and stored at -20 °C before treatment by homogenization and HPLC analysis.
The plasma was thawed and mixed with an equal volume of the extraction solution.
1 ml of solution was then extracted by adding 20 µl of 70% HClO4, then centrifuged at 15,500g for 5 minutes and injected into the HPLC.
Each brain was thawed and homogenized with the extraction solution to provide a final composition of 4 ml/1g of tissue by means of an Ultra-Turrax blender and sonicated for 5 minutes. After centrifugation of the homogenate at 15,500g for 5 minutes, the resulting solution was treated with HClO4, as indicated for the plasma. Specific chromatographic conditions had been developed for each analyte, the calibration curve being constructed for plasma and brain homogenate.

[5] = tested on: C6 cells (rat glioma) and BAEC cells (bovine aortic endothelial); test: In vitro inhibition of CHP-induced oxidative stress (DCF fluorescence); format: cell-based; conditions: 500 µM CHP, 4, 20, 100 and 500 µM compound, 30 minutes; depending on the concentrations and cell line
Experimental: The method used was essentially the one reported by Rüweler M. et al. ("Inhibition of peroxide-induced radical generation by plant polyphenols in C6 astroglioma cells" (2008) Toxicol in vitro 22, 1377-81), with a few minor modifications.
The cells were seeded in phenol-red free DMEM (Sigma Aldrich) into 96-well plates with 5% FBS and 20 mM HEPES at a density of 40,000 cells/well. After 48 hours, the medium was substituted by HBSS (Hanks' Balanced Salt Solution, Sigma) containing 10 µM of dihydro-2',7'-dichlorofluorescein diacetate (H2DCF-DA, Sigma Aldrich) and incubated in darkness for 30 minutes at 37 °C, in order to load the cells with fluorescent dye. H2DCF-DA was hydrolyzed enzymatically by the intracellular esterases to form non-fluorescent H2DCF, which was then rapidly oxidized to form 2',7'-dichlorofluorescein (DCF) being highly fluorescent in the presence of reactive species (RS). The intensity of DCF fluorescence is directly proportional to the amount of RS formed.
After carrying out two washes, the cells were exposed to 500 µM of CHP and various concentrations (4, 20, 100 and 500 µM) of the compounds of the invention for 30 minutes at 37 °C. Fluorescence was then measured, after cell washing, by a microplate reader at an excitation wavelength of 485 nm and an emission wavelength of 535 nm.
Six wells per plate per concentration of test composition (compound + CHP) and per control (HBSS without CHP) were measured and 12 wells were used as reference for CHP-induced stress. In addition, each 96-well plate contained 6 wells that received the highest concentration of the tested compounds without CHP, to investigate whether the compounds of the invention alone were able to induce cellular radical formation.
When using this assay, it should be borne in mind that DCF fluorescence is a generalized indicator of oxidative stress rather than of any particular reactive species, i.e. it is not a direct assay for H2O2 or other reactive species (Halliwell B, Whiteman M. (2004) "Measuring reactive species and oxidative damage in vivo and in cell culture: how should you do it and what do the results mean?" Br. J. Pharmacol. 142 231-255). Therefore, when an increase in DCF fluorescence induced by exposure of cells to CHP was measured, as was carried out in these assays, it was not possible to deduce which reactive species was responsible. Inhibition of CHP-induced fluorescence was evaluated by means of different concentrations of the compounds of the invention and comparative compounds such as Trolox and edaravone.

O=C1CCCC(=O)C1C1COCCN1O (centres unmarked) [(6), 2-(4-hydroxymorpholin-3-yl)-cyclohexane-1,3-dione] gave a TEAC [1] of 1.1, a pKa1 [2] of 3.00 and a pKa2 [2] of 6.39.
In the case of COc1cccc2c1C(=O)c1c(O)c3c(c(O)c1C2=O)C[C@@](O)(C(=O)CO)C[C@@H]3O[C@H]1C[C@H](N)[C@H](O)[C@H](C)O1 [doxorubicin, reference compound], the “Average % variation with respect to the vehicle” value (from here on “Average % variation”) (healthy animals) is reported as -11.4%, the CAT/pr (healthy animals) is reported as -13.2% and the GPX/pr (healthy animals) is reported as -9.9%. The GSH/pr (healthy animals) was -12.5%, the GST/pr (healthy animals) was -9.1% and the “Prot. Hmg” value (healthy animals) was 8.3%. For the same compound, the “Prot. Ox/pr” value (healthy animals) was 17.2%, the SOD/pr (healthy animals) was -14.3% and the Brain/BWi (healthy animals; 50 mg/kg) was 6.9%. The Brain/BWi (healthy animals; listed as D, 50 mg/kg) was -6.9%, the “%D Brain/BWi” value [3] was 93.1% and the “%D CAT” value [3] was 86.8%. For the same compound, the “%D GPX” value [3] was 90.1%, the “%D GSH” value [3] was 87.5% and the “%D GST” value [3] was 90.9%. For the same compound, the “%D Prot. Hmg” value [3] was 108.3%, the “%D Prot. Ox” value [3] was 117.2% and the “%D SOD” value [3] was 85.7%.
With CC1(C)CCN(O)C(C2C(=O)CC(c3ccccc3)CC2=O)C1 (centres unmarked) [(2), 2-(1-hydroxy-4,4-dimethylpiperidin-2-yl)-5-phenylcyclohexane-1,3-dione] the “Average % variation” value (healthy animals; 50 mg/kg) was “did not significantly alter the parameters”, the “Average % variation” value (healthy animals; listed as V+(2), 50 mg/kg) was 3.6% and the Brain/BWi (healthy animals) was 7.6%. The CAT/pr (healthy animals) was -2.9%, the GPX/pr (healthy animals) was 6.6% and the GSH/pr (healthy animals) was 6.1%. For the same compound, the GST/pr (healthy animals) was 5.8%, the “Prot. Hmg” value (healthy animals) was -2.2% and the “Prot. Ox/pr” value (healthy animals) was -3.7%. The SOD/pr (healthy animals) was -0.2%, the Kp [4] was over 0.1 and the TEAC [1] was 0.6. It also gave a pKa1 [2] of 3.21 and a pKa2 [2] of 6.85.
With CC1(C)CC(=O)C(C2CC(C)(C)CCN2O)C(=O)C1 (centres unmarked) [(1), 2-(1-hydroxy-4,4-dimethylpiperidin-2-yl)-5,5-dimethylcyclohexane-1,3-dione] the “Inhibition of CHP-induced fluorescence” value [5] was “effective”, the “Average % variation” value (healthy animals) was -7.0% and the Kp [4] was over 0.1. It also gave a TEAC [1] of 1.0, a pKa1 [2] of 3.35 and a pKa2 [2] of 6.83.
In the case of Cc1cc(O)c(C2COCCN2O)c(=O)o1 (centres unmarked) [(9), 4-hydroxy-3-(4-hydroxymorpholin-3-yl)-6-methyl-2H-pyran-2-one], the “Average % variation” value (healthy animals) is reported as -9.9%, the TEAC [1] is reported as 1.2 and the pKa1 [2] is reported as 2.85. It also gave a pKa2 [2] of 5.71.
O=C1O[C@H]([C@@H](O)CO)C(O)=C1O [vitamin C, reference compound] showed a TEAC [1] of 0.9.
In the case of Cc1c(C)c2c(c(C)c1O)CCC(C)(C(=O)O)O2 (centres unmarked) [Trolox, reference compound], the “Inhibition of CHP-induced fluorescence” value [5] is reported as 10-50%.
